Test results as given in patent US12582613B2, “Biomimetic, reactive oxygen species-detonable nanoclusters for antirestenotic therapy” (University of Virginia Patent Foundation, priority 2021, dated 2026).

Tests used:
PDGF-BB-stimulated VSMC = assay: PDGF-BB-induced VSMC proliferation assay (CellTiter-Glo); format: cell-based, Human; details: 1 μM RVX equivalent
Method: Cell Culture. Human aortic VSMC and culture media (SmBm-2 basal medium for experimental purposes, and SmGm-2 complete medium for expansion) were purchased from Lonza (Walkersville, MD). Cells between passages 5 and 7 were maintained at 37° C. with 5% CO2 and used for all experiments. As established in previous studies, Accutase (ThermoFisher Scientific, Waltham, MA) instead of Trypsin was used for cell detachment to ensure fast cell adhesion and optimal cell status.
Cell Viability Assay of the Nanoclusters. The cytotoxicity and anti-proliferation of the nanoclusters on VSMC was evaluated by a CellTiter-Glo Luminescent Cell Viability kit according to manufacturer's instructions. VSMC were cultured in 96-well plates ([…] and 8×10^4 cells/well for experiments of proliferation and cytotoxicity, respectively) and grown for overnight. For cytotoxicity study, fresh basal medium (supplemented with 0.5% fetal bovine serum) containing NC with different concentrations were added into the plates. For proliferation study, VSMC were treated with 20 nM PDGF-BB to stimulate ROS and proliferation. […] Following 10 min incubation at room temperature, the 96-well plates were analyzed in a FlexStation 3 Benchtop Multi-Mode Microplate Reader (Molecular Devices, San Jose, California) (250-ms integration).

[1] = tested on: balloon-injured carotid arteries; assay: Morphometric analysis of IH and restenosis in rat carotid artery balloon angioplasty model; details: in vivo
Method: Rat Carotid Artery Balloon Angioplasty Model. All animal experiments conform to the protocols approved by the Animal Care and Use Committee (ACUC) of the University of Virginia. All adult male Sprague-Dawley rats (Charles River, weighing 300-350 g) were maintained in a temperature and humidity-controlled SPF level animal facility under a 12 h light-dark cycle. Food and water were available ad libitum. Animals were randomly assigned to each treatment group. The carotid artery balloon injury model was operated as previously described. In brief, after anesthesia with isoflurane (5% for inducing and 2% for maintaining), a mid-line incision in the neck was made, and the carotid arteries and carotid bifurcation were exposed by blunt dissection. The proximal of left carotid artery, inner carotid artery, and external carotid artery were then temporarily ligated with 5-0 nylon suture to avoid excessive blood loss during the surgery. A 1 mm arteriotomy was created on the distal segment of the external carotid arteries. […] Area inside external elastic lamina (EEL area), area inside internal elastic lamina (IEL area), lumen area, intima area (=IEL area—lumen area), and media area (=EEL area—IEL area) were calculated using Image J. Intimal hyperplasia was defined as the ratio of intima area versus media area (Intima-to-media ratio, I/M ratio).

[2] = in vivo; cited from earlier work

Which results are given for `COc1cc(OC)c2c(=O)[nH]c(-c3cc(C)c(OCCO)c(C)c3)nc2c1` [RVX]?
effect on VSMC proliferation (PDGF-BB-stimulated VSMC): failed to exert any notable effect; intimal hyperplasia, intima-to-media (I/M) ratio [1]: neither free RVX solution nor that delivered through conventional PLGA NP led to any significant changes; half-life [2]: 1.5 h
